This is an account of results in patent US9670261B2 (Sanofi, priority 2012, dated 2017).

Data set [1] in a line: Pharmacokinetic testing in mice, s.c. Conditions: mouse, plasma, sc, 1 mg/kg.
Experimental: Mice were dosed 1 mg/kg subcutaneously (s.c.). The mice were sacrified and blood samples were collected after 0.25, 0.5, 1, 2, 4, 8, 16 and 24 hours post application. Plasma samples were analyzed after protein precipitation via liquid chromatography mass spectrometry (LC/MS). PK parameters and half-life were calculated using WinonLin Version 5.2.1 (non-compartment model).
Data set [2] in a line: Solubility testing in buffer (HPLC-UV). Conditions: buffer.
A short description of data set [3]: Chemical stability in solution, 7 days at 25° C. (% remaining peptide). Conditions: % remaining peptide after 7 days at 25° C.
Experimental: After that time course, the sample was centrifuged for 20 min at 4000 rpm and the supernatant was analysed with HPLC-UV. For determination of the amount of the remaining peptide, the peak areas of the target compound at t0 and t7 were compared, resulting in “% remaining peptide”, following the equation % remaining peptide=[(peak area peptide t7)×100]/peak area peptide t0.
The chemical stability is expressed as “% remaining peptide”.
Data set [4] addresses T1, human GLP-1 receptor (Homo sapiens, UniProt P43220).
T1 construct: expressed in transfected cells
The data set is described as follows: cAMP response (HTRF) of HEK-293 cells stably expressing human GLP-1 receptor. It is filed as cell-based. As to conditions: Table 7; cAMP formation; read-out: EC50 hGLP-1 R. On the procedure:
cAMP content of cells was determined using a kit from Cisbio Corp. (cat. no. 62AM4PEC) based on HTRF (Homogenous Time Resolved Fluorescence). For preparation, cells were split into T175 culture flasks and grown overnight to near confluency in medium (DMEM/10% FBS). Medium was then removed and cells washed with PBS lacking calcium and magnesium, followed by proteinase treatment with accutase (Sigma-Aldrich cat. no. A6964). Detached cells were washed and resuspended in assay buffer (1×HBSS; 20 mM HEPES, 0.1% BSA, 2 mM IBMX) and cellular density determined. They were then diluted to 400000 cells/ml and 25 μl-aliquots dispensed into the wells of 96-well plates. For measurement, 25 μl of test compound in assay buffer was added to the wells, followed by incubation for 30 minutes at room temperature.
Background: In TR-FRET formats the signal depends on donor and acceptor labels being close together.

By Cmax is commonly meant the peak of the concentration-time curve. As a reminder, the half-life is how long it takes for the measured level to halve. A lower half-life goes with rapid decline. Usually solubility stands for the concentration that dissolves in the medium under given conditions. For orientation: EC50 means the concentration at which the effect is half-maximal.

Values after ≈ are worked out from the molar mass of the structure shown. *1 amine or outer side, *2 acyl side, *3 side chain or, on linkers, in order; H or OH if unused. Where a SMILES comes first, the peptide text is derived from it. Side-chain parts run from the residue outwards. [ ]: non-standard residue; d: D form. The star is where a group is joined. γGlu = O=C(O)[C@H](CCC(=O)[*:2])N[*:1]; Stearoyl = CCCCCCCCCCCCCCCCCC(=O)*; Palmitoyl = CCCCCCCCCCCCCCCC(=O)*; Aib = CC(C)(N)C(=O)O; βAla = NCCC(=O)O Where only a bound is given, the exact number is not on record here.

T1 sequence (P43220 24-463): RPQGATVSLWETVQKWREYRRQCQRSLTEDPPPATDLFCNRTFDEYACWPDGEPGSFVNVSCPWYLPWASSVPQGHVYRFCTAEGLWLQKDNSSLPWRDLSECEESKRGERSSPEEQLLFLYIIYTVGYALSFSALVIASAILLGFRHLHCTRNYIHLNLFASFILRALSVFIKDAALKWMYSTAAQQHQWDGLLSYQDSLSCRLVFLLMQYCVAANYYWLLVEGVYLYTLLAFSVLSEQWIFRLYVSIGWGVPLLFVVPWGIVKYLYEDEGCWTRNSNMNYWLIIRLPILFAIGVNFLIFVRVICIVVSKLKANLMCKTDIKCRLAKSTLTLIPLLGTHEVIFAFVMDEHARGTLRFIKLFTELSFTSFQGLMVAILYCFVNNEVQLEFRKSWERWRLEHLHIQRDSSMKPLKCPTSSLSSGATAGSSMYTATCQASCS

Turning to `CCCCCCCCCCCCCCCCCC(=O)N[C@@H](CCC(=O)NCCCC[C@H](NC(=O)[C@H](CCC(N)=O)NC(=O)[C@@H](NC(=O)[C@H](CO)NC(=O)[C@H](CC(C)C)NC(=O)[C@H](CC(=O)O)NC(=O)[C@H](CO)NC(=O)[C@@H](NC(=O)[C@H](Cc1ccccc1)NC(=O)[C@@H](NC(=O)CNC(=O)[C@H](CCC(=O)O)NC(=O)C(C)(C)NC(=O)[C@@H](N)Cc1ccc(O)cc1)[C@@H](C)O)[C@@H](C)O)[C@@H](C)CC)C(=O)N[C@@H](CCC(=O)O)C(=O)N[C@@H](CCCCN)C(=O)N[C@@H](CCCNC(=N)N)C(=O)N[C@@H](C)C(=O)N[C@@H](C)C(=O)NC(C)(C)C(=O)N[C@@H](CCC(=O)O)C(=O)N[C@@H](Cc1ccccc1)C(=O)N[C@H](C(=O)N[C@@H](CCC(=O)O)C(=O)N[C@@H](Cc1c[nH]c2ccccc12)C(=O)N[C@@H](CC(C)C)C(=O)N[C@@H](CCCCN)C(=O)N[C@@H](CC(N)=O)C(=O)N[C@H](C(=O)NCC(=O)N1CCC[C@H]1C(=O)N[C@@H](CO)C(=O)N[C@@H](CO)C(=O)NCC(=O)N[C@@H](C)C(=O)N1CCC[C@H]1C(=O)N1CCC[C@H]1C(=O)N1CCC[C@H]1C(=O)N[C@@H](CO)C(N)=O)[C@@H](C)O)[C@@H](C)CC)C(=O)O` [SEQ ID NO: 15, Y-Aib-E-G-T-F-T-S-D-L-S-I-Q-K(γE-x70)-E-K-R-A-A-Aib-E-F-I-E-W-L-K-N-T-G-P-S-S-G-A-P-P-P-S-NH2] (H-Y[Aib]EGTFTSDLSIQK([γGlu-Stearoyl])EKRAA[Aib]EFIEWLKNTGPSSGAPPPS-NH2), in data set [1], the concentration peaked (Cmax) at 5000 ng/mL and the half-life is 3.5 h. The same compound registered a solubility at 2 h in data set [2] (pH 4.5) of 997 µg/mL (≈ 216 µM). The solubility at 2 h in data set [2] (pH 7.4) is greater than 1000 µg/mL. Further, in data set [3], the “Stability (pH 4.5)” value came out at 91.0% and the “Stability (pH 7.4)” value was 90.0%.

With `CCCCCCCCCCCCCCCCCC(=O)NCCC(=O)NCCC(=O)NCCCC[C@H](NC(=O)[C@H](CCC(N)=O)NC(=O)[C@@H](NC(=O)[C@H](CO)NC(=O)[C@H](CC(C)C)NC(=O)[C@H](CC(=O)O)NC(=O)[C@H](CO)NC(=O)[C@@H](NC(=O)[C@H](Cc1ccccc1)NC(=O)[C@@H](NC(=O)CNC(=O)[C@H](CCC(=O)O)NC(=O)C(C)(C)NC(=O)[C@@H](N)Cc1ccc(O)cc1)[C@@H](C)O)[C@@H](C)O)[C@@H](C)CC)C(=O)N[C@@H](CCC(=O)O)C(=O)N[C@@H](CCCCN)C(=O)N[C@@H](CCCNC(=N)N)C(=O)N[C@@H](C)C(=O)N[C@@H](C)C(=O)NC(C)(C)C(=O)N[C@@H](CCC(=O)O)C(=O)N[C@@H](Cc1ccccc1)C(=O)N[C@H](C(=O)N[C@@H](CCC(=O)O)C(=O)N[C@@H](Cc1c[nH]c2ccccc12)C(=O)N[C@@H](CC(C)C)C(=O)N[C@@H](CCCCN)C(=O)N[C@@H](CC(N)=O)C(=O)N[C@H](C(=O)NCC(=O)N1CCC[C@H]1C(=O)N[C@@H](CO)C(=O)N[C@@H](CO)C(=O)NCC(=O)N[C@@H](C)C(=O)N1CCC[C@H]1C(=O)N1CCC[C@H]1C(=O)N1CCC[C@H]1C(=O)N[C@@H](CO)C(N)=O)[C@@H](C)O)[C@@H](C)CC` [SEQ ID NO: 18, Y-Aib-E-G-T-F-T-S-D-L-S-I-Q-K(βA-βA-x70)-E-K-R-A-A-Aib-E-F-I-E-W-L-K-N-T-G-P-S-S-G-A-P-P-P-S-NH2] (H-Y[Aib]EGTFTSDLSIQK([βAla-βAla-Stearoyl])EKRAA[Aib]EFIEWLKNTGPSSGAPPPS-NH2), the 50% effective concentration (EC50) in data set [4] amounted to 7.6 pM. In data set [1], this compound had a Cmax of 5750 ng/mL and a half-life of 2.1 h.

In the case of `CCCCCCCCCCCCCCCC(=O)N[C@@H](CCC(=O)NCCCC[C@H](NC(=O)[C@H](CCC(N)=O)NC(=O)[C@@H](NC(=O)[C@H](CO)NC(=O)[C@H](CC(C)C)NC(=O)[C@H](CC(=O)O)NC(=O)[C@H](CO)NC(=O)[C@@H](NC(=O)[C@H](Cc1ccccc1)NC(=O)[C@@H](NC(=O)CNC(=O)[C@H](CCC(=O)O)NC(=O)C(C)(C)NC(=O)[C@@H](N)Cc1ccc(O)cc1)[C@@H](C)O)[C@@H](C)O)[C@@H](C)CC)C(=O)N[C@@H](CCC(=O)O)C(=O)N[C@@H](CCCCN)C(=O)N[C@@H](CCCNC(=N)N)C(=O)N[C@@H](C)C(=O)N[C@@H](C)C(=O)N[C@@H](CCC(N)=O)C(=O)N[C@@H](CCC(=O)O)C(=O)N[C@@H](Cc1ccccc1)C(=O)N[C@H](C(=O)N[C@@H](CCC(=O)O)C(=O)N[C@@H](Cc1c[nH]c2ccccc12)C(=O)N[C@@H](CC(C)C)C(=O)N[C@@H](CCCCN)C(=O)N[C@@H](CC(N)=O)C(=O)N[C@H](C(=O)NCC(=O)N1CCC[C@H]1C(=O)N[C@@H](CO)C(=O)N[C@@H](CO)C(=O)NCC(=O)N[C@@H](C)C(=O)N1CCC[C@H]1C(=O)N1CCC[C@H]1C(=O)N1CCC[C@H]1C(=O)N[C@@H](CO)C(N)=O)[C@@H](C)O)[C@@H](C)CC)C(=O)O` [SEQ ID NO: 26, Y-Aib-E-G-T-F-T-S-D-L-S-I-Q-K(γE-x53)-EKRAAQEFIEWLKNTGPSSGAPPPS-NH2] (H-Y[Aib]EGTFTSDLSIQK([γGlu-Palmitoyl])EKRAAQEFIEWLKNTGPSSGAPPPS-NH2), the EC50 in data set [4] was 4.9 pM. In data set [1], this compound gave a maximum concentration (Cmax) of 3120 ng/mL and a half-life of 3.7 h.

Take `CCCCCCCCCCCCCCCC(=O)N[C@@H](CCC(=O)NCCCC[C@H](NC(=O)[C@H](CCC(N)=O)NC(=O)[C@@H](NC(=O)[C@H](CO)NC(=O)[C@H](CC(C)C)NC(=O)[C@H](CC(=O)O)NC(=O)[C@H](CO)NC(=O)[C@@H](NC(=O)[C@H](Cc1ccccc1)NC(=O)[C@@H](NC(=O)CNC(=O)[C@H](CCC(=O)O)NC(=O)C(C)(C)NC(=O)[C@@H](N)Cc1ccc(O)cc1)[C@@H](C)O)[C@@H](C)O)[C@@H](C)CC)C(=O)N[C@@H](CC(=O)O)C(=O)N[C@@H](CCCCN)C(=O)N[C@@H](CCCNC(=N)N)C(=O)N[C@@H](C)C(=O)N[C@@H](C)C(=O)N[C@@H](CCC(N)=O)C(=O)N[C@@H](CC(=O)O)C(=O)N[C@@H](Cc1ccccc1)C(=O)N[C@H](C(=O)N[C@@H](CCC(=O)O)C(=O)N[C@@H](Cc1c[nH]c2ccccc12)C(=O)N[C@@H](CC(C)C)C(=O)N[C@@H](CCCCN)C(=O)N[C@@H](C)C(=O)NCC(=O)NCC(=O)N1CCC[C@H]1C(=O)N[C@@H](CO)C(=O)N[C@@H](CO)C(=O)NCC(=O)N[C@@H](C)C(=O)N1CCC[C@H]1C(=O)N1CCC[C@H]1C(=O)N1CCC[C@H]1C(=O)N[C@@H](CO)C(N)=O)[C@@H](C)CC)C(=O)O` [SEQ ID NO: 31, Y-Aib-E-G-T-F-T-S-D-L-S-I-Q-K(γE-x53)-DKRAAQDFIEWLKAGGPSSGAPPPS-NH2]: in data set [4], the EC50 was determined as 6 pM. Further, in data set [2] (pH 4.5), the solubility at 2 h is greater than 1000 µg/mL. Moreover, the solubility at 2 h in data set [2] (pH 7.4) is greater than 1000 µg/mL. In data set [3], the “Stability (pH 4.5)” value was 94.0% and the “Stability (pH 7.4)” value was 96.0%.

Consider `CCCCCCCCCCCCCCCC(=O)N[C@@H](CCC(=O)NCCCC[C@H](NC(=O)[C@H](CCC(N)=O)NC(=O)[C@@H](NC(=O)[C@H](CO)NC(=O)[C@H](CC(C)C)NC(=O)[C@H](CC(=O)O)NC(=O)[C@H](CO)NC(=O)[C@@H](NC(=O)[C@H](Cc1ccccc1)NC(=O)[C@@H](NC(=O)CNC(=O)[C@H](CCC(=O)O)NC(=O)C(C)(C)NC(=O)[C@@H](N)Cc1ccc(O)cc1)[C@@H](C)O)[C@@H](C)O)[C@@H](C)CC)C(=O)N[C@@H](CCC(=O)O)C(=O)N[C@@H](CO)C(=O)N[C@@H](CCCNC(=N)N)C(=O)N[C@@H](C)C(=O)N[C@@H](C)C(=O)NC(C)(C)C(=O)N[C@@H](CCC(=O)O)C(=O)N[C@@H](Cc1ccccc1)C(=O)N[C@H](C(=O)N[C@@H](CCC(=O)O)C(=O)N[C@@H](Cc1c[nH]c2ccccc12)C(=O)N[C@@H](CC(C)C)C(=O)N[C@@H](CCCCN)C(=O)N[C@@H](C)C(=O)NCC(=O)NCC(=O)N1CCC[C@H]1C(=O)N[C@@H](CO)C(=O)N[C@@H](CO)C(=O)NCC(=O)N[C@@H](C)C(=O)N1CCC[C@H]1C(=O)N1CCC[C@H]1C(=O)N1CCC[C@H]1C(=O)N[C@@H](CO)C(N)=O)[C@@H](C)CC)C(=O)O` [SEQ ID NO: 35, Y-Aib-E-G-T-F-T-S-D-L-S-I-Q-K(γE-x53)-E-S-R-A-A-Aib-E-F-I-E-W-L-K-A-G-G-P-S-S-G-A-P-P-P-S-NH2] (H-Y[Aib]EGTFTSDLSIQK([γGlu-Palmitoyl])ESRAA[Aib]EFIEWLKAGGPSSGAPPPS-NH2), for which the EC50 in data set [4] was found to be 6.9 pM. Moreover, in data set [2] (pH 4.5), the solubility at 2 h was determined as 424 µg/mL (≈ 95.4 µM). Moreover, the solubility at 2 h in data set [2] (pH 7.4) is greater than 1000 µg/mL. In data set [3], the “Stability (pH 4.5)” value is 100.0% and the “Stability (pH 7.4)” value was found to be 98.0%.
